This assay deals with D4 receptors, ICR mouse striatum. Description: Antagonist effect on D-301-stimulated [35S]GTPγS binding in ICR mouse striatum. In kind it is biochemical. The note with it: antagonist concentrations up to 1 μM, unpublished data. (Binding of GTPγS marks nucleotide exchange on a G protein.)

Each structure is given as a SMILES string.

The record followed here is publication PMC4775387 (Neurochemical research, 2015).

In the case of `Clc1ccc(N2CCN(Cc3c[nH]c4ncccc34)CC2)cc1` [LY745870], the “effect on D-301-stimulated [35S]GTPγS binding” value is recorded as “no significant effect”.
